According to patent US20250351832A1, “PHYTOCHEMICALS AS BIOPESTICIDES AND BIOSTIMULANTS” (KAY BEE BIO ORGANICS PVT. LTD., priority 2024, published 2025):
Where two headings read alike, the source gives them in different places.

Columns and labels:
Aphid [1] = details: for Total No. of dead insect at 48 Hrs.: 10 insects/treatment, 4 replications, cotton leaves
Spodoptera litura [2] = assay: whole plant or invertebrate; details: 72 h
tomato seedlings = assay: Response of tomato plants, greenhouse growth (Ex. 30); type: in vivo; details: tomato seedlings, dose 1 ml/gm/lit; for Plant Height 5th Day / Stem Girth 5th Day / CCI 5th Day: 5th day after application; for Plant Height 10th Day / Stem Girth 10th Day / CCI 10th Day: 10th day after application; for Plant Height % Increase over pre on 10th Day / Stem Girth % Increase over pre on 10th Day / CCI % Increase over pre on 10th Day / Root Length (cm) 10th Day / Root Length % Increase over control: 10th day; for Root Length % Increase over control: vs water control
Alternaria alternata [3] = assay: Alternaria leaf spot/blight on inoculated tomato plants (Ex. 28); type: in vivo; details: tomato plants, Alternaria alternata; after 7 days; dose 1 ml/gm/lit
Mealy Bug [4] = details: mealy bug on cotton plants, green house, dose 1 ml/gm/lit. spray; for % Mortality at 48 Hrs. / Total No. of dead insect at 48 Hrs.: 48 hrs after application; for % Corrected Mortality at 48 Hrs.: corrected for water control
Aphid [5] = assay: whole plant or invertebrate; details: 48 h
Mite [6] = details: mite on okra plants, green house, dose 1 ml/gm/lit. spray; for % Mortality at 48 Hrs. / Total No. of dead insect at 48 Hrs.: 48 hrs after application; for % Corrected Mortality at 48 Hrs.: corrected for water control
[7] = cited from earlier work
Helicoverpa armigera [8] = details: Helicoverpa armigera on okra fruits, dose 1 ml/gm/lit., 72 Hrs.; for Total No. of dead insect at 72 Hrs.: 10 insects/treatment, 4 replications; for % Corrected Mortality at 72 Hrs.: corrected for water control
Thrips [9] = details: Thrips on cotton leaves; dose 1 ml/gm/lit.; 10 insects/treatment; 48 hrs after application
Mite [10] = details: for Total No. of dead insect at 48 Hrs.: 10 insects/treatment, 4 replications, okra leaves
Mealy Bug [11] = details: Mealy Bug on cotton leaves, dose 1 ml/gm/lit., 48 Hrs.; for Total No. of dead insect at 48 Hrs.: 10 insects/treatment, 4 replications; for % Corrected Mortality at 48 Hrs.: corrected for water control
Aphid [12] = details: Aphids on cotton plants, green house; dose 1 ml/gm/lit.; 10 insects/plant, 10 plants/treatment; 48 hrs
chili seedlings = assay: Response of chili plants, greenhouse growth (Ex. 31); type: in vivo; details: chili seedlings, dose 1 ml/gm/lit; for CCI 5th Day / Plant Height (cm) 5th Day: 5th day after application; for CCI 10th Day / Plant Height (cm) 10th Day: 10th day after application; for CCI % Increase over pre on 10th Day / Plant Height % Increase over pre on 10th Day / Root Lenght (cm) 10th Day / Stem Girth % Increase over pre on 10th Day / Root Lenght % Increase over control: 10th day; for Root Lenght % Increase over control: vs water control
Spodoptera litura [13] = details: Spodoptera litura 3rd instar on cabbage plants, dose 1 ml/gm/lit. spray; for % Mortality at 72 Hrs.: 72 hrs after application; for % Corrected Mortality at 72 Hrs.: corrected for water control
Spodoptera litura [14] = details: Spodoptera litura on castor leaves; dose 1 ml/gm/lit.; 10 insects/treatment; 72 hrs after application
Alternaria alternata [15] = assay: In vitro poisoned food technique against fungus (Ex. 20); type: cell-based
Thrips [16] = details: thrips on cotton plants, greenhouse, dose 1 ml/gm/lit. spray; for % Mortality at 48 Hrs. / Total No. of dead insect at 48 Hrs.: 48 hrs after application; for % Corrected Mortality at 48 Hrs.: corrected for water control
Thrips [17] = assay: whole plant or invertebrate; details: in Gossypium hirsutum, 48 h
Helicoverpa armigera [18] = details: Helicoverpa armigera 3rd instar on chickpea plants, dose 1 ml/gm/lit. spray; for % Mortality at 72 Hrs.: 72 hrs after application; for % Corrected Mortality at 72 Hrs.: corrected for water control
[19] = read-out: % Corrected Mortality at 72 Hrs.
[20] = read-out: % Mortality at 72 Hrs.
[21] = read-out: % Corrected Mortality at 48 Hrs.
[22] = read-out: % Mortality at 48 Hrs.
[23] = Table 13, descriptive, no test described
[24] = poisoned food technique, PDA medium, dose 1 ml/gm/lit., after seven days

Cc1ccc(C(C)C)c(O)c1 [Thymol]
Total No. of dead insect at 48 Hrs. (Aphid [1]; Dose 1 ml/gm/lit.): 6.25
% Corrected Mortality at 48 Hrs. (Aphid [1]; in vivo): 57.14%
mortality at 1 mL or g/L (Spodoptera litura [2]; [19]): 65.8%
mortality at 1 mL or g/L (Spodoptera litura [2]; [20]): 67.5%
Plant Height 5th Day (tomato seedlings): 6.81 cm
Stem Girth 5th Day (tomato seedlings): 1.90 mm
Plant Height 10th Day (tomato seedlings): 7.62 cm
Stem Girth 10th Day (tomato seedlings): 2.53 mm
Plant Height % Increase over pre on 10th Day (tomato seedlings): 30.48%
Stem Girth % Increase over pre on 10th Day (tomato seedlings): 61.42%
CCI 5th Day (tomato seedlings): 14.12
CCI % Increase over pre on 10th Day (tomato seedlings): 22.87%
Root Length (cm) 10th Day (tomato seedlings): 4.82 cm
CCI 10th Day (tomato seedlings): 15.42
Root Length % Increase over control (tomato seedlings): 44.89%
% Disease reduction over Control (Alternaria alternata [3]): 61.16%
% Mortality at 48 Hrs. (Mealy Bug [4]): 55.00%
Total No. of dead insect at 48 Hrs. (Mealy Bug [4]): 55.00
% Corrected Mortality at 48 Hrs. (Mealy Bug [4]): 50.00%
mortality at 1 mL or g/L (Aphid [5]; [21]): 55.9%
mortality at 1 mL or g/L (Aphid [5]; [22]): 62.5%
% Mortality at 48 Hrs. (Mite [6]): 62.50%
Total No. of dead insect at 48 Hrs. (Mite [6]): 62.50
% Corrected Mortality at 48 Hrs. (Mite [6]): 60.53%
Antioxidant Activity - Mode of action [7, 23]: Antioxidant and food
Bactericidal Activity - Mode of action [7, 23]: Growth inhibition
Insecticidal Activities - Mode of action [7, 23]: Inhibited the growth,
Virucidal Activity - Mode of action [7, 23]: Inhibit virus replication
Phytotonic Effect ([7]; Table 13, effect on plants, descriptive): Improves
Total No. of dead insect at 72 Hrs. (Helicoverpa armigera [8]): 6.50
% Mortality at 72 Hrs. (Helicoverpa armigera [8]): 65.00%
% Corrected Mortality at 72 Hrs. (Helicoverpa armigera [8]): 65.00%
Total No. of dead insect at 48 Hrs. (Thrips [9]): 3.25
Total No. of dead insect at 48 Hrs. (Mite [10]; Dose 1 ml/gm/lit.): 6.00
% Corrected Mortality at 48 Hrs. (Mite [10]; in vivo): 56.76%
% Mortality at 48 Hrs. (Mite [10]; in vivo): 60.00%
Total No. of dead insect at 48 Hrs. (Mealy Bug [11]): 5.50
% Mortality at 48 Hrs. (Mealy Bug [11]): 55.00%
% Corrected Mortality at 48 Hrs. (Mealy Bug [11]): 52.63%
Total No. of dead insect at 48 Hrs. (Aphid [12]): 62.50
CCI 5th Day (chili seedlings): 13.80
Plant Height (cm) 5th Day (chili seedlings): 6.13 cm
CCI % Increase over pre on 10th Day (chili seedlings): 75.74%
Plant Height % Increase over pre on 10th Day (chili seedlings): 58.04%
Root Lenght (cm) 10th Day (chili seedlings): 3.77 cm
Stem Girth % Increase over pre on 10th Day (chili seedlings): 51.36%
CCI 10th Day (chili seedlings): 14.85
Plant Height (cm) 10th Day (chili seedlings): 7.27 cm
Root Lenght % Increase over control (chili seedlings): 37.87%
% Mortality at 72 Hrs. (Spodoptera litura [13]): 65.00%
% Corrected Mortality at 72 Hrs. (Spodoptera litura [13]): 63.16%
Total No. of dead insect at 72 Hrs. (Spodoptera litura [14]): 6.75
Mean colony Diameter (mm) (Alternaria alternata [15]; [24]): 51.50 mm
inhibition of growth at 1 mL or g/L (Alternaria alternata [15]; poisoned food technique, PDA medium, dose 1 ml/gm/lit., after seven days, vs untreated control, read-out: % Inhibition of growth): 41.5%
% Mortality at 48 Hrs. (Thrips [16]): 35.00%
Total No. of dead insect at 48 Hrs. (Thrips [16]): 35.00
% Corrected Mortality at 48 Hrs. (Thrips [16]): 27.78%
mortality at 1 mL or g/L (Thrips [17]; [21]): 22.9%
mortality at 1 mL or g/L (Thrips [17]; [22]): 32.5%
% Mortality at 72 Hrs. (Helicoverpa armigera [18]): 62.50%
% Corrected Mortality at 72 Hrs. (Helicoverpa armigera [18]): 62.50%

C/C=C\c1cc(OC)c(OC)cc1OC [β-Asarone]
Total No. of dead insect at 48 Hrs. (Aphid [1]; Dose 1 ml/gm/lit.): 7.25
% Corrected Mortality at 48 Hrs. (Aphid [1]; Dose 1 ml/gm/lit., 48 hrs): 68.57%
% Mortality at 48 Hrs. (Aphid [1]; Dose 1 ml/gm/lit., 48 hrs): 72.50%
mortality at 1 mL or g/L (Spodoptera litura [2]; [19]): 57.9%
mortality at 1 mL or g/L (Spodoptera litura [2]; [20]): 60%
Plant Height 5th Day (tomato seedlings): 6.72 cm
Stem Girth 5th Day (tomato seedlings): 1.72 mm
Plant Height 10th Day (tomato seedlings): 7.24 cm
Stem Girth 10th Day (tomato seedlings): 2.45 mm
Plant Height % Increase over pre on 10th Day (tomato seedlings): 27.69%
Stem Girth % Increase over pre on 10th Day (tomato seedlings): 56.32%
CCI 5th Day (tomato seedlings): 13.45
CCI % Increase over pre on 10th Day (tomato seedlings): 29.08%
Root Length (cm) 10th Day (tomato seedlings): 4.43 cm
CCI 10th Day (tomato seedlings): 14.56
Root Length % Increase over control (tomato seedlings): 33.31%
% Disease reduction over Control (Alternaria alternata [3]): 64.46%
% Mortality at 48 Hrs. (Mealy Bug [4]): 35.00%
Total No. of dead insect at 48 Hrs. (Mealy Bug [4]): 35.00
% Corrected Mortality at 48 Hrs. (Mealy Bug [4]): 27.78%
mortality at 1 mL or g/L (Aphid [5]; [21]): 64.7%
mortality at 1 mL or g/L (Aphid [5]; [22]): 70%
% Mortality at 48 Hrs. (Mite [6]): 22.50%
Total No. of dead insect at 48 Hrs. (Mite [6]): 22.50
% Corrected Mortality at 48 Hrs. (Mite [6]): 18.42%
Antifungal Activity - Mode of action [7, 23]: Completely inhibited
Insecticidal Activities - Mode of action [7, 23]: Reductions in oviposition
Nematicidal Activity - Mode of action [7, 23]: Act as potent nematicide
Total No. of dead insect at 72 Hrs. (Helicoverpa armigera [8]): 5.00
% Mortality at 72 Hrs. (Helicoverpa armigera [8]): 50.00%
% Corrected Mortality at 72 Hrs. (Helicoverpa armigera [8]): 50.00%
Total No. of dead insect at 48 Hrs. (Thrips [9]): 6.75
Total No. of dead insect at 48 Hrs. (Mite [10]; Dose 1 ml/gm/lit.): 2.50
% Corrected Mortality at 48 Hrs. (Mite [10]; Dose 1 ml/gm/lit., 48 hrs): 18.92%
% Mortality at 48 Hrs. (Mite [10]; Dose 1 ml/gm/lit., 48 hrs): 25.00%
Total No. of dead insect at 48 Hrs. (Mealy Bug [11]): 3.00
% Mortality at 48 Hrs. (Mealy Bug [11]): 30.00%
% Corrected Mortality at 48 Hrs. (Mealy Bug [11]): 26.32%
Total No. of dead insect at 48 Hrs. (Aphid [12]): 70.00
CCI 5th Day (chili seedlings): 9.58
Plant Height (cm) 5th Day (chili seedlings): 5.70 cm
CCI % Increase over pre on 10th Day (chili seedlings): 40.02%
Plant Height % Increase over pre on 10th Day (chili seedlings): 51.59%
Root Lenght (cm) 10th Day (chili seedlings): 3.17 cm
Stem Girth % Increase over pre on 10th Day (chili seedlings): 40.46%
CCI 10th Day (chili seedlings): 12.49
Plant Height (cm) 10th Day (chili seedlings): 7.61 cm
Root Lenght % Increase over control (chili seedlings): 16.00%
% Mortality at 72 Hrs. (Spodoptera litura [13]): 55.00%
% Corrected Mortality at 72 Hrs. (Spodoptera litura [13]): 52.63%
Total No. of dead insect at 72 Hrs. (Spodoptera litura [14]): 6.00
inhibition of growth at 1 mL or g/L (Alternaria alternata [15]; […]): 54%
Mean colony Diameter (mm) (Alternaria alternata [15]; [24]): 40.50 mm
% Mortality at 48 Hrs. (Thrips [16]): 65.00%
Total No. of dead insect at 48 Hrs. (Thrips [16]): 65.00
% Corrected Mortality at 48 Hrs. (Thrips [16]): 61.11%
mortality at 1 mL or g/L (Thrips [17]; [21]): 62.9%
mortality at 1 mL or g/L (Thrips [17]; [22]): 67.5%
% Mortality at 72 Hrs. (Helicoverpa armigera [18]): 52.50%
% Corrected Mortality at 72 Hrs. (Helicoverpa armigera [18]): 52.50%
